Measurements as given in patent publication US10072003B2, “Tetrahydronaphthyridine derivatives as mGluR2-negative allosteric modulators, compositions, and their use” (Merck Sharp & Dohme Corp., priority 2014, dated 2018).

target: recombinant human mGluR2 (Homo sapiens (Human), UniProt Q14416); experiment: FLIPR Ca2+ mobilization antagonist assay in CHO dhfr- cells expressing human mGluR2 and Gα16; type: cell-based; details: antagonist response after addition of 2,500 nM glutamate, Fluo-4 AM, FLIPR384
Sequence (Q14416 19-872): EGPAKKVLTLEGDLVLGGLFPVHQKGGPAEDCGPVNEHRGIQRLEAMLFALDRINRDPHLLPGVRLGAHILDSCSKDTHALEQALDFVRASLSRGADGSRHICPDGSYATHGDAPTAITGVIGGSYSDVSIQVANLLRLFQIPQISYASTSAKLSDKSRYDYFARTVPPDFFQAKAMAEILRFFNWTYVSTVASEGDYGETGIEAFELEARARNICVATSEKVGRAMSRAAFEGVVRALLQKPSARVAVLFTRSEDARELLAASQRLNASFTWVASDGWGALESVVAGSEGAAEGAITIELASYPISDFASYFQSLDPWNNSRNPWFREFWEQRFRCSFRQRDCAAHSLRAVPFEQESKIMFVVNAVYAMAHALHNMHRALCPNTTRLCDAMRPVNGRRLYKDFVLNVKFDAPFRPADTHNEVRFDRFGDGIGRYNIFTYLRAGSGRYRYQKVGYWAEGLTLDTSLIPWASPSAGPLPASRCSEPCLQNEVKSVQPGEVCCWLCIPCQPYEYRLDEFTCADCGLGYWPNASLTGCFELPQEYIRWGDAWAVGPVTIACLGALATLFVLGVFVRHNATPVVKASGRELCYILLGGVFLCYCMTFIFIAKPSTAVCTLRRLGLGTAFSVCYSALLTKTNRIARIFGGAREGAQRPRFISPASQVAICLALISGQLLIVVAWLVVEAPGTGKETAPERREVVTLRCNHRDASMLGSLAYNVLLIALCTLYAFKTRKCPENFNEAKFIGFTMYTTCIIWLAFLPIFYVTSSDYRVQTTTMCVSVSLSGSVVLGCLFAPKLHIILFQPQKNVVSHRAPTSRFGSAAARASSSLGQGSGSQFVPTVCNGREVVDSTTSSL
Experimental: Antagonist constants are determined as follows. The compounds of the invention were tested in a fluorescence laser imaging plate reader based assay. This assay is a common functional assay to monitor Ca2+ mobilization in whole cells expressing recombinant receptor coupled with a promiscuous G-protein. CHO dhfr-cells stably expressing recombinant human mGluR2 and Gα16 loaded with Fluo-4 AM (Invitrogen, Carlsbad Calif.) were treated with various concentrations of antagonists of compounds and the Ca2+ response was monitored on a FLIPR384 (Molecular Devices, Sunnydale Calif.) for agonist activity. Then 2,500 nM glutamate was added and the antagonist response was monitored. The maximum calcium response at each concentration of compound for agonist or antagonist were plotted as dose responses and the curves were fitted with a four parameter logistic equation giving IC50 and Hill coefficient using the iterative non linear curve fitting software ADA (Merck & Co). Data in the following table represent activities in the antagonist assay.

First: CC1CCCN(c2cc(C(N)=O)nc3c2CCN(Cc2ccnc(C(F)(F)F)c2)C3)C1 (single isomer, unassigned) [Example 5-5B, (R) or (S)-4-(3-methylpiperidin-1-yl)-7-((2-(trifluoromethyl)pyridin-4-yl)methyl)-5,6,7,8-tetrahydro-1,7-naphthyridine-2-carboxamide]
Second: NC(=O)c1cc(-n2ccc(C(F)(F)F)n2)c2c(n1)CN(Cc1ccnc(C(F)(F)F)c1)CC2 [Example 2-19, 4-[3-(trifluoromethyl)-1H-pyrazol-1-yl]-7-{[2-(trifluoromethyl)pyridin-4-yl]methyl}-5,6,7,8-tetrahydro-1,7-naphthyridine-2-carboxamide]
The IC50 of the first is 4.8-fold lower: 12.9 nM for the first, 61.6 nM for the second.

Going from `COc1cc(F)ccc1-c1cc(C(N)=O)nc2c1CCN(Cc1ccnc(C3CC3)c1)C2` [Example 2-10, 7-[(2-cyclopropylpyridin-4-yl)methyl]-4-(4-fluoro-2-methoxyphenyl)-5,6,7,8-tetrahydro-1,7-naphthyridine-2-carboxamide] to `COc1cc(CN2CCc3c(-c4ccc(Cl)cc4F)cc(C(N)=O)nc3C2)ccn1` [Example 13-3, 4-(4-chloro-2-fluorophenyl)-7-[(2-methoxypyridin-4-yl)methyl]-5,6,7,8-tetrahydro-1,7-naphthyridine-2-carboxamide], the IC50 falls from 40.9 nM to 16 nM (2.6-fold). The second is the more potent here.

`Cc1cc(-c2cc(C(N)=O)nc3c2CCN(Cc2ccnc(OC(F)F)c2)C3)sn1` [Example 2-16, 7-{[2-(difluoromethoxy)pyridin-4-yl]methyl}-4-(3-methylisothiazol-5-yl)-5,6,7,8-tetrahydro-1,7-naphthyridine-2-carboxamide] and `Cc1ncc(-c2cc(C(N)=O)nc3c2CCN(Cc2ccnc(OC(F)F)c2)C3)s1` [Example 6-3, 7-{[2-(difluoromethoxy)pyridin-4-yl]methyl}-4-(2-methyl-1,3-thiazol-5-yl)-5,6,7,8-tetrahydro-1,7-naphthyridine-2-carboxamide] are within 1.5-fold of each other in IC50: 26.7 nM for the first, 18.6 nM for the second.

`Cc1conc1CN1CCc2c(-c3ccc(F)cc3F)cc(C(N)=O)nc2C1` [Example 2-26, 4-(2,4-difluorophenyl)-7-[(4-methylisoxazol-3-yl)methyl]-5,6,7,8-tetrahydro-1,7-naphthyridine-2-carboxamide] and `Cn1nccc1CN1CCc2c(-c3ccc(F)cc3F)cc(C(N)=O)nc2C1` [Example 1-6, 4-(2,4-difluorophenyl)-7-[(1-methyl-1H-pyrazol-5-yl)methyl]-5,6,7,8-tetrahydro-1,7-naphthyridine-2-carboxamide] are within 1.5-fold of each other in IC50: 13.1 nM for the first, 14.5 nM for the second.

Compared with `NC(=O)c1cc(-c2ccc(F)cc2Cl)c2c(n1)CN(Cc1ccnc(C(F)(F)F)n1)CC2` [Example 11-5, 4-(2-chloro-4-fluorophenyl)-7-{[2-(trifluoromethyl)pyrimidin-4-yl]methyl}-5,6,7,8-tetrahydro-1,7-naphthyridine-2-carboxamide], `NC(=O)c1cc(-c2ccc(Cl)cc2F)c2c(n1)CN(Cc1ccnc(C(F)(F)F)n1)CC2` [Example 11-3, 4-(4-chloro-2-fluorophenyl)-7-{[2-(trifluoromethyl)pyrimidin-4-yl]methyl}-5,6,7,8-tetrahydro-1,7-naphthyridine-2-carboxamide] is 2.4-fold lower in IC50: 17.6 nM for the first, 7.2 nM for the second. The second is the more potent here.

Going from `NC(=O)c1cc(N2CCC3(CC2)CC3)c2c(n1)CN(Cc1cc(C(F)(F)F)ncn1)CC2` [Example 12-5, 4-(6-azaspiro[2.5]oct-6-yl)-7-{[6-(trifluoromethyl)pyrimidin-4-yl]methyl}-5,6,7,8-tetrahydro-1,7-naphthyridine-2-carboxamide] to `NC(=O)c1cc(N2CCC(F)(F)CC2)c2c(n1)CN(Cc1cc(C(F)(F)F)ncn1)CC2` [Example 12-4, 4-(4,4-difluoropiperidin-1-yl)-7-{[6-(trifluoromethyl)pyrimidin-4-yl]methyl}-5,6,7,8-tetrahydro-1,7-naphthyridine-2-carboxamide], the IC50 rises from 20.4 nM to 35.9 nM (1.8-fold). The first is the more potent here.

First: CS(=O)(=O)c1cccc(CN2CCc3c(-c4ccccc4F)cc(C(N)=O)nc3C2)c1 [Example 2-13, 4-(2-fluorophenyl)-7-[3-(methylsulfonyl)benzyl]-5,6,7,8-tetrahydro-1,7-naphthyridine-2-carboxamide]
Second: Cc1ccc(-c2cc(C(N)=O)nc3c2CCN(Cc2ccnn2C(C)C)C3)c(F)c1 [Example 1-12, 4-(2-fluoro-4-methylphenyl)-7-{[1-(1-methylethyl)-1H-pyrazol-5-yl]methyl}-5,6,7,8-tetrahydro-1,7-naphthyridine-2-carboxamide]
The IC50 of the first is 4.8-fold higher: 47.8 nM for the first, 9.9 nM for the second.

First: CC1(C)CC(CN2CCc3c(-c4ccc(F)cc4F)cc(C(N)=O)nc3C2(C)C)CCO1 (racemic) [Example 1-23A, (R) and (S)-4-(2,4-difluorophenyl)-7-((2,2-dimethyltetrahydro-2H-pyran-4-yl)methyl)-8,8-dimethyl-5,6,7,8-tetrahydro-1,7-naphthyridine-2-carboxamide]
Second: CC1(C)CC(CN2CCc3c(-c4ccc(F)cc4F)cc(C(N)=O)nc3C2)CCO1 (single isomer, unassigned) [Example 1-11B, (S) or (R)-4-(2,4-difluorophenyl)-7-[(2,2-dimethyltetrahydro-2H-pyran-4-yl)methyl]-5,6,7,8-tetrahydro-1,7-naphthyridine-2-carboxamide]
The IC50 of the first is 3.1-fold lower: 14.7 nM for the first, 45.2 nM for the second.

First: NC(=O)c1cc(-c2ccc(F)cc2)c2c(n1)CN(C[C@@H]1CCN[C@H](C(F)(F)F)C1)CC2 [Example 1-1B, 4-(4-fluorophenyl)-7-(((2S,4R)-2-(trifluoromethyl)piperidin-4-yl)methyl)-5,6,7,8-tetrahydro-1,7-naphthyridine-2-carboxamide]
Second: NC(=O)c1cc(-c2ccc(F)cc2)c2c(n1)CN(Cc1cc(C(F)(F)F)ncn1)CC2 [Example 11-10, 4-(4-fluorophenyl)-7-{[6-(trifluoromethyl)pyrimidin-4-yl]methyl}-5,6,7,8-tetrahydro-1,7-naphthyridine-2-carboxamide]
The IC50 of the first is 13-fold higher: 98.2 nM for the first, 7.6 nM for the second.

`CC1(C)CCC(CN2CCc3c(-c4ccc(F)cc4F)cc(C(N)=O)nc3C2)CO1` (single isomer, unassigned) [Example 1-20, (S) or (R)-4-(2,4-difluorophenyl)-7-[(6,6-dimethyltetrahydro-2H-pyran-3-yl)methyl]-5,6,7,8-tetrahydro-1,7-naphthyridine-2-carboxamide] and `CC1(C)CC(O)(CN2CCc3c(-c4ccc(F)cc4F)cc(C(N)=O)nc3C2)CCO1` (single isomer, unassigned) [Example 14-2B] are within 1.5-fold of each other in IC50: 24.4 nM for the first, 27.1 nM for the second.

Compared with `NC(=O)c1cc(-n2cc(Cl)cn2)c2c(n1)CN(Cc1ccnc(C(F)(F)F)n1)CC2` [Example 12-3, 4-(4-chloro-1H-pyrazol-1-yl)-7-{[2-(trifluoromethyl)pyrimidin-4-yl]methyl}-5,6,7,8-tetrahydro-1,7-naphthyridine-2-carboxamide], `NC(=O)c1cc(-c2cc(F)ccc2F)c2c(n1)CN(Cc1ccnc(C(F)(F)F)n1)CC2` [Example 11-2, 4-(2,5-difluorophenyl)-7-{[2-(trifluoromethyl)pyrimidin-4-yl]methyl}-5,6,7,8-tetrahydro-1,7-naphthyridine-2-carboxamide] is 1.8-fold lower in IC50: 93.2 nM for the first, 52.1 nM for the second. The second is the more potent here.

`CC(C)n1nccc1CN1CCc2c(-c3ccc(F)cc3F)cc(C(N)=O)nc2C1` [Example 1-9, 4-(2,4-difluorophenyl)-7-{[1-(1-methylethyl)-1H-pyrazol-5-yl]methyl}-5,6,7,8-tetrahydro-1,7-naphthyridine-2-carboxamide] and `CC1c2nc(C(N)=O)cc(-c3ccc(F)cc3F)c2CCN1Cc1ccnn1C(C)C` (single isomer, unassigned) [Example 1-15A, (S) or (R)-4-(2,4-difluorophenyl)-8-methyl-7-{[1-(1-methylethyl)-1H-pyrazol-5-yl]methyl}-5,6,7,8-tetrahydro-1,7-naphthyridine-2-carboxamide] are within 1.5-fold of each other in IC50: 8.2 nM for the first, 5.8 nM for the second.

Compared with `CC(c1cnnn1C)N1CCc2c(-c3ccc(F)cc3F)cc(C(N)=O)nc2C1` (single isomer, unassigned) [Example 7-2, (R) or (S)-4-(2,4-difluorophenyl)-7-[(1R)-1-(1-methyl-1H-1,2,3-triazol-5-yl)ethyl]-5,6,7,8-tetrahydro-1,7-naphthyridine-2-carboxamide], `NC(=O)c1cc(-c2ccc(F)cc2F)c2c(n1)CN(CC(=O)N1CCOCC1)CC2` [Example 2-17, 4-(2,4-difluorophenyl)-7-(2-morpholin-4-yl-2-oxoethyl)-5,6,7,8-tetrahydro-1,7-naphthyridine-2-carboxamide] is 2.2-fold higher in IC50: 45.9 nM for the first, 101 nM for the second.

First: CC1(C)CC(O)(CN2CCc3c(-c4ccc(F)cc4F)cc(C(N)=O)nc3C2(C)C)CO1 (single isomer, unassigned) [Example 15-1B]
Second: CC(C)(C)n1nccc1CN1CCc2c(-c3ccncc3)cc(C(N)=O)nc2C1 [Example 1-13, 7-[(1-tert-butyl-1H-pyrazol-5-yl)methyl]-4-pyridin-4-yl-5,6,7,8-tetrahydro-1,7-naphthyridine-2-carboxamide]
The IC50 of the first is 3.6-fold lower: 23.6 nM for the first, 84.1 nM for the second.

Going from `NC(=O)c1cc(N2CCC3(CC2)CC3)c2c(n1)CN(Cc1ccnc(C(F)(F)F)n1)CC2` [Example 12-2, 4-(6-azaspiro[2.5]oct-6-yl)-7-{[2-(trifluoromethyl)pyrimidin-4-yl]methyl}-5,6,7,8-tetrahydro-1,7-naphthyridine-2-carboxamide] to `NC(=O)c1cc(-c2cnn(C(F)F)c2)c2c(n1)CN(Cc1ccnc(OC(F)F)c1)CC2` [Example 2-12, 7-{[2-(difluoromethoxy)pyridin-4-yl]methyl}-4-[1-(difluoromethyl)-1H-pyrazol-4-yl]-5,6,7,8-tetrahydro-1,7-naphthyridine-2-carboxamide], the IC50 falls from 13.1 nM to 8.5 nM (1.5-fold).

For `CC1(C)CC(O)(CN2CCc3c(-c4ccc(F)cc4F)cc(C(N)=O)nc3C2(C)C)CO1` (single isomer, unassigned) [Example 15-1A], the IC50 was 24.9 nM.
